Data reported in US10577378B2, “EIF4A-inhibiting compounds and methods related thereto” (eFFECTOR Therapeutics, Inc., priority 2015, dated 2020).
pIC50: −log10 of the molar value.

What follows are compounds tested on MDA-MB-231 human breast cancer cells (assay: Cell proliferation assay (CellTiter-Glo, 72 hours treatment)). Conditions: Homo sapiens, MDA-MB-231, 72 h, read-out: MDA-MB-231 cell proliferation assay (IC50).
Assay type: cell-based
How it was run: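 MDA-MB-231 cells seeded at 2,500 cells/well, treated next day with compound or DMSO vehicle for 72 h at 37 °C. Proliferation read by CellTiter-Glo; IC50 from sigmoidal non-linear regression, binned as +++ (<100 nM), ++ (100–1000 nM), + (>1000 nM).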

| Structure (SMILES) | pIC50 |
| --- | --- |
| COc1cncc2c1[C@]1(O)C(=O)C(C(=O)N(C)C)[C@@H](c3ccccc3)[C@]1(c1ccc(Br)cc1)O2 (mixture of isomers) [192F, Rac-(4bR,7S,7aR)-7a-(4-bromophenyl)-4b-hydroxy-4-methoxy-N,N-dimethyl-5-oxo-7-phenyl-4b,6,7,7a-tetrahydro-5H-cyclopenta[4,5]furo[2,3-c]pyridine-6-carboxamide] | < 6.00 |

Same assay, conditions: Homo sapiens; MDA-MB-231 cells, 72 hours at 37° C., CellTiter-Glo; read-out: MDA-MB-231 cell proliferation assay (IC50)

| Structure (SMILES) | pIC50 |
| --- | --- |
| N#Cc1ccc([C@@]23Oc4cc(Cl)cnc4[C@]2(O)[C@H](O)[C@H](Sc2ccccn2)[C@H]3c2ccccc2)cc1 (racemic) [189F, Rac-4-((5aR,6S,7R,8S,8aS)-3-chloro-8,8a-dihydroxy-6-phenyl-7-(pyridin-2-ylthio)-6,7,8,8a-tetrahydro-5aH-cyclopenta[4,5]furo[3,2-b]pyridin-5a-yl)benzonitrile] | 6.00 to 7.00 |
| C#CC1(O)C(C(=O)N(C)C)[C@@H](c2ccccc2)[C@]2(c3ccc(Br)cc3)Oc3cc(Cl)cnc3[C@]12O (mixture of isomers) [190F, rac-(5aR,6S,8aS)-5a-(4-bromophenyl)-3-chloro-8-ethynyl-8,8a-dihydroxy-N,N-dimethyl-6-phenyl-5a,7,8,8a-tetrahydro-6H-cyclopenta[4,5]furo[3,2-b]pyridine-7-carboxamide] | 6.00 to 7.00 |
| CC#CC1(O)C(C(=O)N(C)C)[C@@H](c2ccccc2)[C@]2(c3ccc(Br)cc3)Oc3cc(Cl)cnc3[C@]12O (mixture of isomers) [191F, Rac-(5aR,6S,8aS)-5a-(4-bromophenyl)-3-chloro-8,8a-dihydroxy-N,N-dimethyl-6-phenyl-8-(prop-1-yn-1-yl)-5a,7,8,8a-tetrahydro-6H-cyclopenta[4,5]furo[3,2-b]pyridine-7-carboxamide] | 6.00 to 7.00 |
| COC(=O)[C@@H]1C(c2ccccc2)[C@]2(c3ccc(I)cc3)Oc3cncc(OC)c3[C@]2(O)[C@@H]1O (mixture of isomers) [193F, Rac-Methyl (4bS,5R,6R,7aR)-4b,5-dihydroxy-7a-(4-iodophenyl)-4-methoxy-7-phenyl-4b,6,7,7a-tetrahydro-5H-cyclopenta[4,5]furo[2,3-c]pyridine-6-carboxylate] | 6.00 to 7.00 |
| COc1cncc2c1[C@]1(O)[C@H](O)[C@H](CN3CCN(C(C)=O)CC3)[C@@H](c3ccccc3)[C@]1(c1ccc(C#N)cc1)O2 (racemic) [194F, Rac-4-((4bS,5R,6S,7S,7aR)-6-((4-acetylpiperazin-1-yl)methyl)-4b,5-dihydroxy-4-methoxy-7-phenyl-4b,5,6,7-tetrahydro-7aH-cyclopenta[4,5]furo[2,3-c]pyridin-7a-yl)benzonitrile] | < 6.00 |
| COc1nc(Cl)cc2c1[C@]1(O)[C@H](O)[C@H](CNCC(F)F)[C@@H](c3ccccc3)[C@]1(c1ccc(C#N)cc1)O2 (racemic) [196F, Rac-4-((5aR,6S,7S,8R,8aS)-3-chloro-7-(((2,2-difluoroethyl)amino)methyl)-8,8a-dihydroxy-1-methoxy-6-phenyl-6,7,8,8a-tetrahydro-5aH-cyclopenta[4,5]furo[3,2-c]pyridin-5a-yl)benzonitrile] | > 7.00 |
| COc1nc(C#N)cc2c1[C@]1(O)[C@H](O)[C@H](CNCC(F)F)[C@@H](c3ccccc3)[C@]1(c1ccc(C#N)cc1)O2 (racemic) [197F, Rac-(5aR,6S,7S,8R,8aS)-5a-(4-cyanophenyl)-7-(((2,2-difluoroethyl)amino)methyl)-8,8a-dihydroxy-1-methoxy-6-phenyl-5a,7,8,8a-tetrahydro-6H-cyclopenta[4,5]furo[3,2-c]pyridine-3-carbonitrile] | 6.00 to 7.00 |
| COc1nc(C#N)cc2c1[C@]1(O)[C@H](O)[C@H](CN3CCN(C)CC3)[C@@H](c3ccccc3)[C@]1(c1ccc(C#N)cc1)O2 (racemic) [198Fb, Rac-(5aR,6S,7S,8R,8aS)-5a-(4-cyanophenyl)-8,8a-dihydroxy-1-methoxy-7-((4-methylpiperazin-1-yl)methyl)-6-phenyl-5a,7,8,8a-tetrahydro-6H-cyclopenta[4,5]furo[3,2-c]pyridine-3-carbonitrile] | > 7.00 |
| COc1nc(Cl)cc2c1[C@]1(O)[C@@H](CN3CCOCC3)[C@H](CO)[C@@H](c3ccccc3)[C@]1(c1ccc(Br)cc1)O2 (racemic) [199F, Rac-(5aR,6S,7R,8R,8aR)-5a-(4-bromophenyl)-3-chloro-7-(hydroxymethyl)-1-methoxy-8-(morpholinomethyl)-6-phenyl-5a,6,7,8-tetrahydro-8aH-cyclopenta[4,5]furo[3,2-c]pyridin-8a-ol] | > 7.00 |
| COc1nc(C#N)cc2c1[C@]1(O)[C@@H](CN3CCOCC3)[C@H](CO)[C@@H](c3ccccc3)[C@]1(c1ccc(C#N)cc1)O2 (racemic) [200F, Rac-(5aR,6S,7R,8R,8aR)-5a-(4-cyanophenyl)-8a-hydroxy-7-(hydroxymethyl)-1-methoxy-8-(morpholinomethyl)-6-phenyl-5a,7,8,8a-tetrahydro-6H-cyclopenta[4,5]furo[3,2-c]pyridine-3-carbonitrile] | > 7.00 |
| COc1cncc2c1[C@]1(O)[C@@H](CN3CC4(COC4)C3)[C@H](CO)[C@@H](c3ccccc3)[C@]1(c1ccc(C#N)cc1)O2 (racemic) [202F, Rac-4-((4bR,5R,6R,7S,7aR)-5-((2-oxa-6-azaspiro[3.3]heptan-6-yl)methyl)-4b-hydroxy-6-(hydroxymethyl)-4-methoxy-7-phenyl-4b,5,6,7-tetrahydro-7aH-cyclopenta[4,5]furo[2,3-c]pyridin-7a-yl)benzonitrile] | > 7.00 |
| COc1cncc2c1[C@]1(O)[C@@H](CNCc3ccnn3C)[C@H](CO)[C@@H](c3ccccc3)[C@]1(c1ccc(Br)cc1)O2 (racemic) [203F, Rac-(4bR,5R,6R,7S,7aR)-7a-(4-bromophenyl)-6-(hydroxymethyl)-4-methoxy-5-((((1-methyl-1H-pyrazol-5-yl)methyl)amino)methyl)-7-phenyl-5,6,7,7a-tetrahydro-4bH-cyclopenta[4,5]furo[2,3-c]pyridin-4b-ol] | > 7.00 |
| COc1cncc2c1[C@]1(O)[C@@H](CNCc3ccnn3C)[C@H](CO)[C@@H](c3ccccc3)[C@]1(c1ccc(C#N)cc1)O2 (racemic) [204F, Rac-4-((4bR,5R,6R,7S,7aR)-4b-hydroxy-6-(hydroxymethyl)-4-methoxy-5-((((1-methyl-1H-pyrazol-5-yl)methyl)amino)methyl)-7-phenyl-4b,5,6,7-tetrahydro-7aH-cyclopenta[4,5]furo[2,3-c]pyridin-7a-yl)benzonitrile] | > 7.00 |
| COc1cncc2c1[C@]1(O)[C@@H](CN(C)C)[C@H](CO)[C@@H](c3ccccc3)[C@]1(c1ccc(Br)cc1)O2 (racemic) [205F, Rac-(4bR,5R,6R,7S,7aR)-7a-(4-bromophenyl)-5-((dimethylamino)methyl)-6-(hydroxymethyl)-4-methoxy-7-phenyl-5,6,7,7a-tetrahydro-4bH-cyclopenta[4,5]furo[2,3-c]pyridin-4b-ol] | > 7.00 |
| COc1cncc2c1[C@]1(O)[C@@H](CN(C)C)[C@H](CO)[C@@H](c3ccccc3)[C@]1(c1ccc(C#N)cc1)O2 (racemic) [206F, Rac-4-((4bR,5R,6R,7S,7aR)-5-((dimethylamino)methyl)-4b-hydroxy-6-(hydroxymethyl)-4-methoxy-7-phenyl-4b,5,6,7-tetrahydro-7aH-cyclopenta[4,5]furo[2,3-c]pyridin-7a-yl)benzonitrile] | > 7.00 |
